This is an account of results in US12459899B2, “Isoquinolinone derivatives, method for preparing the same, and pharmaceutical composition for preventing or treating poly(ADP-ribose) polymerase-1-related diseases, comprising the same as active ingredient” (DIGMBIO. INC., priority 2019, dated 2025).

In general, IC50 refers to the concentration at which inhibition is half-maximal. A lower IC50 goes with higher potency.

The target of this test is PARP-1 (poly[ADP-ribose] polymerase 1) enzyme (Homo sapiens (Human), UniProt P09874). The test is described as follows: PARP-1 (poly[ADP-ribose] polymerase 1) enzyme inhibitory ability, Trevigen assay kit. It counts as biochemical. The following applies: for inhibition at 0.001 µM: 1 nM compound, read-out: PAR P-1 Inhibitory ability at 1 nM; for IC50: PARP-1 enzyme activity. Here is the method: In order to evaluate the PARP-1 (poly[ADP-ribose] polymerase 1) enzyme inhibitory ability of the compounds according to the present invention, an experiment was conducted as follows.
Chain of PARP-1 (poly[ADP-ribose] polymerase 1) enzyme (P09874 whole entry): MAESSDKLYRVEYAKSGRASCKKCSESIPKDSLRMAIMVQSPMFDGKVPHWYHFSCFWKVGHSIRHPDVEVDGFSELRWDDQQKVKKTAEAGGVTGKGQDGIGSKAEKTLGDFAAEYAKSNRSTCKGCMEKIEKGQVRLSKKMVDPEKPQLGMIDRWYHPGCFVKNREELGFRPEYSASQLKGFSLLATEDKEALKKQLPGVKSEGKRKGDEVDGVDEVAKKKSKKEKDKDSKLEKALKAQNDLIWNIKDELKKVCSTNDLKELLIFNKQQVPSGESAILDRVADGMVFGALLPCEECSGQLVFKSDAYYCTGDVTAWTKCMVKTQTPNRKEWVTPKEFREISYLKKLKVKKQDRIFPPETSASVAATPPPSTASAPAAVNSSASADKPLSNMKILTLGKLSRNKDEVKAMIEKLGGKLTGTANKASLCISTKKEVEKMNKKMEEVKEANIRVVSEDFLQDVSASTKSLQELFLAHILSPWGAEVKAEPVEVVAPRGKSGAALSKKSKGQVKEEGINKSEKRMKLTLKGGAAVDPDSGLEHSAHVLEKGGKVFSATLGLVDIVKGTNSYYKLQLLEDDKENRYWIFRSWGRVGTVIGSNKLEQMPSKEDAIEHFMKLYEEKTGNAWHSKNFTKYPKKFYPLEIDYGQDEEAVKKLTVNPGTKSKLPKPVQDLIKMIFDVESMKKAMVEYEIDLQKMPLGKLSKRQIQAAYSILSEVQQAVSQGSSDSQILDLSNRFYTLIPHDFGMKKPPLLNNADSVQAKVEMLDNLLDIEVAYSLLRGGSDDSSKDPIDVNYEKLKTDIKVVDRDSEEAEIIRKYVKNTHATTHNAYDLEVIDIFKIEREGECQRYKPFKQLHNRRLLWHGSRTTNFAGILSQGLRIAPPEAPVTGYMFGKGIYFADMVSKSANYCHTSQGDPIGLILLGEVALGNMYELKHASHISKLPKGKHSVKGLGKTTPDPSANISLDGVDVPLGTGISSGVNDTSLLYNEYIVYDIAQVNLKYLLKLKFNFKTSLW
Specifically, in order to evaluate the PARP-1 (poly[ADP-ribose] polymerase 1) enzyme inhibitory ability of the compounds of Examples 1 to 276 according to the present invention, the PARP-1 (poly[ADP-ribose] polymerase 1) activity was investigated in the following manner using an assay kit purchased from Trevigen, Inc. (Catalog number: 4677-096-K). 50 μL of 1×PARP buffer (provided by Trevigen's kit) was dispensed into a 96-well plate coated with histones per each well, and then rehydrated for 30 minutes. After removing the 1×PARP buffer present in the well, PARP-1 (poly[ADP-ribose] polymerase 1) enzyme (0.5 unit/well) and 1 μM concentration or various concentrations of the compounds of Example 1 to 276 were added at room temperature and reacted for 10 minutes. Thereafter, each well was treated with 25 μL of 1×PARP cocktail (biotinylated NAD, activated DNA, provided by Trevigen's kit), and then reacted at room temperature for 1 hour. After the reaction was completed, each well was washed twice with PBS (7.5 mM Na2HPO4, 2.5 mM NaH2PO4, 145 mM NaCl) containing 0.1% triton X-100, and washed twice with PBS. Then, 50 μL of strep-HRP (streptavidin-linked peroxidase) was added and reacted at room temperature for 1 hour, and then washed twice with PBS containing 0.1% triton X-100, and washed twice with PBS. After removing all PBS, 50 μL of TACS-sapphire, a substrate, was added, and reacted at room temperature for 15 minutes while blocking the light. After the reaction was terminated by treatment with 50 μL of 5% phosphoric acid to each well, the absorbance was measured at 450 nm using a microplate reader Victor3 from PerkinElmer, Inc. to quantify the value.

Counter-ions that a name gives are not always drawn.

Regarding `N#Cc1ccc(N2CCN(CCCc3cc4cccc(F)c4c(=O)[nH]3)CC2)cn1` [Example 2, 5-(4-(3-(8-fluoro-1-oxo-1,2-dihydroisoquinolin-3-yl)propyl)piperazin-1-yl)picolinonitrile], the inhibition at 0.001 µM is less than 50%.

For the compound `N#Cc1ccc(N2CCN(CCCc3cc4cccc(F)c4c(=O)[nH]3)CC2)nc1` [Example 3, 6-(4-(3-(8-fluoro-1-oxo-1,2-dihydroisoquinolin-3-yl)propyl)piperazin-1-yl)nicotinonitrile], the inhibition at 0.001 µM was less than 50%.

Turning to `O=c1[nH]c(CCCN2CCN(c3ccc(C(F)(F)F)cc3)CC2)cc2cccc(F)c12` [Example 4, 8-fluoro-3-(3-(4-(4-(trifluoromethyl)phenyl)piperazin-1-yl)propyl)isoquinolin-1(2H)-one], the inhibition at 0.001 µM was less than 50%.

Consider `N#Cc1ccc(N2CCN(CCCc3cc4cccc(F)c4c(=O)[nH]3)CC2)cc1F` [Example 5, 2-fluoro-4-(4-(3-(8-fluoro-1-oxo-1,2-dihydroisoquinolin-3-yl)propyl)piperazin-1-yl)benzonitrile], for which the inhibition at 0.001 µM was less than 50%.

With `N#Cc1ccc(N2CCN(CCCc3cc4cccc(F)c4c(=O)[nH]3)CC2)cc1` [Example 6, 4-(4-(3-(8-fluoro-1-oxo-1,2-dihydroisoquinolin-3-yl)propyl)piperazin-1-yl)benzonitrile hydrochloride], the inhibition at 0.001 µM was in the range of 50 to 80%. For the setting “hydrochloride”, this compound returned an IC50 of 0.41 nM.

Regarding `N#Cc1ccc(N2CC3CCC(C2)N3CCCc2cc3cccc(F)c3c(=O)[nH]2)cc1` [Example 7, 4-(8-(3-(8-fluoro-1-oxo-1,2-dihydroisoquinolin-3-yl)propyl)-3,8-diazabicyclo[3.2.1]octan-3-yl)benzonitrile], the inhibition at 0.001 µM is less than 50%.

Take `N#Cc1ccc(N2CCN(CCCc3cc4ccc(F)cc4c(=O)[nH]3)CC2)cc1` [Example 8, 4-(4-(3-(7-fluoro-1-oxo-1,2-dihydroisoquinolin-3-yl)propyl)piperazin-1-yl)benzonitrile]: the inhibition at 0.001 µM is 50 to 80% and the 50% inhibitory concentration (IC50) is 0.72 nM.

As for `O=c1[nH]c(CCCN2CCN(c3ccc(C(F)(F)F)cc3)CC2)cc2ccc(F)cc12` [Example 9, 7-fluoro-3-(3-(4-(4-(trifluoromethyl)phenyl)piperazin-1-yl)propyl)isoquinolin-1(2H)-one], the inhibition at 0.001 µM was less than 50%.

`N#Cc1ccc(N2CCN(CCCc3cc4ccc(F)cc4c(=O)[nH]3)CC2)cn1` [Example 10, 5-(4-(3-(7-fluoro-1-oxo-1,2-dihydroisoquinolin-3-yl)propyl)piperazin-1-yl)picolinonitrile]: the inhibition at 0.001 µM was 50 to 80%.

Consider `O=c1[nH]c(CCCN2CCN(c3cccc([N+](=O)[O-])c3)CC2)cc2ccc(F)cc12` [Example 11, 7-fluoro-3-(3-(4-(3-nitrophenyl)piperazin-1-yl)propyl)isoquinolin-1(2H)-one], for which the inhibition at 0.001 µM was less than 50%.

For `O=c1[nH]c(CCCN2CCN(c3ncccn3)CC2)cc2ccc(F)cc12` [Example 13, 7-fluoro-3-(3-(4-(pyrimidin-2-yl)piperazin-1-yl)propyl)isoquinolin-1(2H)-one], the inhibition at 0.001 µM was less than 50%.

Consider `O=c1[nH]c(CCCN2CCN(c3ccc(F)cc3)CC2)cc2ccc(F)cc12` [Example 15, 7-fluoro-3-(3-(4-(4-fluorophenyl)piperazin-1-yl)propyl)isoquinolin-1(2H)-one], for which 4.01 nM corresponded to half-maximal inhibition (IC50).

Consider `O=c1[nH]c(CCCN2CCN(c3cccc(OC(F)(F)F)c3)CC2)cc2ccc(F)cc12` [Example 16, 7-fluoro-3-(3-(4-(3-(trifluoromethoxy)phenyl)piperazin-1-yl)propyl)isoquinolin-1(2H)-one], for which the inhibition at 0.001 µM was less than 50%.

With `O=c1[nH]c(CCCN2CCN(c3cccc(Cl)c3)CC2)cc2ccc(F)cc12` [Example 17, 3-(3-(4-(3-chlorophenyl)piperazin-1-yl)propyl)-7-fluoroisoquinolin-1(2H)-one], the inhibition at 0.001 µM is less than 50%.

On to `COC(=O)c1cccc(N2CCN(CCCc3cc4ccc(F)cc4c(=O)[nH]3)CC2)c1` [Example 18, methyl 3-(4-(3-(7-fluoro-1-oxo-1,2-dihydroisoquinolin-3-yl)propyl)piperazin-1-yl)benzoate], for which the inhibition at 0.001 µM was less than 50%.

With `O=C(O)c1cccc(N2CCN(CCCc3cc4ccc(F)cc4c(=O)[nH]3)CC2)c1` [Example 19, 3-(4-(3-(7-fluoro-1-oxo-1,2-dihydroisoquinolin-3-yl)propyl)piperazin-1-yl)benzoic acid], the inhibition at 0.001 µM is less than 50%.

`CC(=O)Nc1cccc(N2CCN(CCCc3cc4ccc(F)cc4c(=O)[nH]3)CC2)c1` [Example 20, N-(3-(4-(3-(7-fluoro-1-oxo-1,2-dihydroisoquinolin-3-yl)propyl)piperazin-1-yl)phenyl)acetamide]: the inhibition at 0.001 µM is less than 50%.

On to `Cc1ccc(F)c2c(=O)[nH]c(CCCN3CCN(c4ccc(C#N)nc4)CC3)cc12` [Example 21, 5-(4-(3-(8-fluoro-5-methyl-1-oxo-1,2-dihydroisoquinolin-3-yl)propyl)piperazin-1-yl)picolinonitrile], for which the inhibition at 0.001 µM is less than 50% and inhibition was half-maximal at 1.09 nM (IC50).

As to `Cc1ccc(F)c2c(=O)[nH]c(CCCN3CCN(c4ccc(C#N)cn4)CC3)cc12` [Example 22, 6-(4-(3-(8-fluoro-5-methyl-1-oxo-1,2-dihydroisoquinolin-3-yl)propyl)piperazin-1-yl)nicotinonitrile], the inhibition at 0.001 µM is less than 50% and the IC50 was 1.2 nM.

For `Cc1ccc(F)c2c(=O)[nH]c(CCCN3CCN(c4ccc(C#N)cc4)CC3)cc12` [Example 23, 4-(4-(3-(8-fluoro-5-methyl-1-oxo-1,2-dihydroisoquinolin-3-yl)propyl)piperazin-1-yl)benzonitrile], the inhibition at 0.001 µM is less than 50% and inhibition was half-maximal at 0.76 nM (IC50).

On to `Cc1ccc(F)c2c(=O)[nH]c(CCCN3CCN(c4ccccn4)CC3)cc12` [Example 24, 8-fluoro-5-methyl-3-(3-(4-(pyridin-2-yl)piperazin-1-yl)propyl)isoquinolin-1(2H)-one], for which the inhibition at 0.001 µM is less than 50%.

In the case of `Cc1ccc(F)c2c(=O)[nH]c(CCCN3CCN(c4ncccn4)CC3)cc12` [Example 25, 8-fluoro-5-methyl-3-(3-(4-(pyrimidin-2-yl)piperazin-1-yl)propyl)isoquinolin-1(2H)-one], the inhibition at 0.001 µM was less than 50%.

With `Cc1ccc(F)c2c(=O)[nH]c(CCCN3CCN(c4ccc(C#N)cc4F)CC3)cc12` [Example 26, 3-fluoro-4-(4-(3-(8-fluoro-5-methyl-1-oxo-1,2-dihydroisoquinolin-3-yl)propyl)piperazin-1-yl)benzonitrile], the inhibition at 0.001 µM lay in the range of 50 to 80%.

With `Cc1ccc(F)c2c(=O)[nH]c(CCCN3CCN(c4ccc(C(F)(F)F)cc4)CC3)cc12` [Example 27, 8-fluoro-5-methyl-3-(3-(4-(4-(trifluoromethyl)phenyl)piperazin-1-yl)propyl)isoquinolin-1(2H)-one], the inhibition at 0.001 µM was less than 50%.

For `Cc1ccc(F)c2c(=O)[nH]c(CCCN3CCN(c4ccccc4C#N)CC3)cc12` [Example 28, 2-(4-(3-(8-fluoro-5-methyl-1-oxo-1,2-dihydroisoquinolin-3-yl)propyl)piperazin-1-yl)benzonitrile], the inhibition at 0.001 µM is less than 50%.
